Patent publication US20250195521A1 (Revolution Medicines, Inc., priority 2020, published 2025)

Assays:
[1] = tested on: NCI-H358 cells (K-Ras G12C); test: CellTiter-Glo cell viability, NCI-H358; assay type: cell-based, human; details: Homo sapiens, NCI-H358, 120 h, K-Ras G12C, 5-day treatment; read-out: H358 Cell Viability IC50
In short: (§1)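 Five-day treatment of K-Ras mutant cells with directly dispensed compound; ATP-based luminescence endpoint. Percent of DMSO signal fit to four-parameter logistic curve.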

[2] = biological target: K-Ras G12C(GMP-PNP) binding to BRAF RBD (Homo sapiens (Human), UniProt P01116+P62937, G12C); test: Disruption of BRAF RBD interaction with K-Ras (FRET / MOA assay), K-Ras G12C; assay type: biochemical; details: read-out: KRAS G12C FRET IC50
Chain of K-Ras G12C(GMP-PNP) binding to BRAF RBD (P01116 other isoform, or with tags, fused parts or gaps G12C): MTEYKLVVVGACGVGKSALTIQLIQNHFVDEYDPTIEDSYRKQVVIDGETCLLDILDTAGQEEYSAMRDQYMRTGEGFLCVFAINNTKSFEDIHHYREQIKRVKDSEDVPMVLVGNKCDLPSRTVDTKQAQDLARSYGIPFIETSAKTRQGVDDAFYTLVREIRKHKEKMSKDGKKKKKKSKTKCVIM
Chain of K-Ras G12C(GMP-PNP) binding to BRAF RBD (P62937 whole entry): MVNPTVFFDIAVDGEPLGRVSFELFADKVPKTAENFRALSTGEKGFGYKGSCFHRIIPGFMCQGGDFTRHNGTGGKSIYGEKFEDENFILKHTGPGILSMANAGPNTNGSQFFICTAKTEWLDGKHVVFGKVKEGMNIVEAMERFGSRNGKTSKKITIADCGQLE
In short: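 Cpd 10-pt 3-fold dilution, top 30 μM final; Ras/CypA/BRAF RBD mix 3 h, 25° C. Add anti-His Eu-W1024 10 nM + anti-GST APC 50 nM final, 1.5 h. Readout TR-FRET ratio decrease vs DMSO → IC50.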

NCI-H358 (K-Ras G12C) = test: CellTiter-Glo cell viability assay, NCI-H358; assay type: cell-based, human; details: Homo sapiens, NCI-H358, 120 h, 5-day treatment; read-out: H358 Cell Viability assay data (K-Ras G12C, IC50)
In short: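 Five-day compound treatment of NCI-H358 cells, then CellTiter-Glo luminescence, percent of DMSO, four-parameter logistic fit.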

KRAS G13D = KRAS G13D (Homo sapiens (Human), UniProt P01116+P62937, G13D); test: Ras-Raf disruption/FRET/MOA assay (BRAF RBD, Cyclophilin A); assay type: biochemical; details: read-out: KRAS G13D FRET data IC50
Chain of KRAS G13D (P01116 other isoform, or with tags, fused parts or gaps G13D): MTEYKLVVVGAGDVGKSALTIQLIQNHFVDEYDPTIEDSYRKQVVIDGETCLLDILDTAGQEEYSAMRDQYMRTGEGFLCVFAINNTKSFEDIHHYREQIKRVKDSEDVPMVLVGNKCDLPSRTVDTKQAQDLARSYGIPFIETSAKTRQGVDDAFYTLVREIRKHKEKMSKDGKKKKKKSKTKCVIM
Chain of KRAS G13D (P62937 whole entry): as the sequence (P62937 whole entry) above
In short: (§2)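 Measured: compound-facilitated Cyclophilin A:Ras complex blocking RAF RBD binding. Conditions: 12.5 nM Ras-GMPPNP, 50 nM BRAF RBD, 25 μM CypA, 3 h plus 1.5 h detection. Output: IC50 from TR-FRET ratio.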

NRAS G12C = NRAS G12C (Homo sapiens (Human), UniProt P01111+P62937, G12C); test: as above; assay type: biochemical; details: read-out: NRAS G12C FRET data IC50
Chain of NRAS G12C (P01111 whole entry G12C): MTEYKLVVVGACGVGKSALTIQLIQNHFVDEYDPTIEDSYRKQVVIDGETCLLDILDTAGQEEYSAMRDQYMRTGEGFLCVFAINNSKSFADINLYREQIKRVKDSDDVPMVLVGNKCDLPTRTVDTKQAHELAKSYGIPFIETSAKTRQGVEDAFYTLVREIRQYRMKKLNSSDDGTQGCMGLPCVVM
Chain of NRAS G12C (P62937 whole entry): as the sequence (P62937 whole entry) above
In short: (§3)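 25 μM tagless Cyclophilin A, 12.5 nM His6-Ras-GMPPNP and 50 nM GST-BRAF RBD in HEPES pH 7.3 buffer with 5 mM MgCl2, with compound (10-point 3-fold series from 30 μM final) for 3 h at 25 °C. Anti-His Eu and anti-GST APC then added for 1.5 h. IC50 from TR-FRET ratio decrease versus DMSO.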

KRAS WT = KRAS WT (Homo sapiens (Human), UniProt P01116+P62937); test: as above; assay type: biochemical; details: read-out: KRAS WT FRET data IC50
Chain of KRAS WT (P01116 other isoform, or with tags, fused parts or gaps): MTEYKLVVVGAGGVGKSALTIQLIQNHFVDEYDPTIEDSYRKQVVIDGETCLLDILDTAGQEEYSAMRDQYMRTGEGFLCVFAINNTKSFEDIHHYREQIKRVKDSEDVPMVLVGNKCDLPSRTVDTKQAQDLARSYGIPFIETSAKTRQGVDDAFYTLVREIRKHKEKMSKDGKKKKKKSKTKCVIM
Chain of KRAS WT (P62937 whole entry): as the sequence (P62937 whole entry) above
In short: as §2

KRAS Q61H = KRAS Q61H (Homo sapiens (Human), UniProt P01116+P62937, Q61H); test: as above; assay type: biochemical
Chain of KRAS Q61H (P01116 other isoform, or with tags, fused parts or gaps Q61H): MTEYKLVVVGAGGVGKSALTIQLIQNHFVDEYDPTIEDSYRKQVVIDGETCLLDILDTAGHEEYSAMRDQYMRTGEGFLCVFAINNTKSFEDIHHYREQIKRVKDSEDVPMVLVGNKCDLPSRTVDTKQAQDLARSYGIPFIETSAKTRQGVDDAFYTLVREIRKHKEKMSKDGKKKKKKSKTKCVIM
Chain of KRAS Q61H (P62937 whole entry): as the sequence (P62937 whole entry) above
In short: as §2

NRAS WT = NRAS WT (Homo sapiens (Human), UniProt P01111+P62937); test: as above; assay type: biochemical
Chain of NRAS WT (P01111 whole entry): as the sequence (P01111 whole entry G12C) above, with C12G counted along it
Chain of NRAS WT (P62937 whole entry): as the sequence (P62937 whole entry) above
In short: as §3

KRAS G12C = KRAS G12C (Homo sapiens (Human), UniProt P01116+P62937, G12C); test: as above; assay type: biochemical; details: read-out: KRAS G12C FRET IC50
Chain of KRAS G12C (P01116-2 other isoform, or with tags, fused parts or gaps G12C): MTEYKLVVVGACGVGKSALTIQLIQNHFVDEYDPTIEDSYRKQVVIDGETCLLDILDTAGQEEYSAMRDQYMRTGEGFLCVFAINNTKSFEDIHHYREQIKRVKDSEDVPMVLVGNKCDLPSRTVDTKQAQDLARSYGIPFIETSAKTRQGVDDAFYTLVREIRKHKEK
Chain of KRAS G12C (P62937 whole entry): as the sequence (P62937 whole entry) above
In short: as §2

KRAS G13C = KRAS G13C (Homo sapiens (Human), UniProt P01116+P62937, G13C); test: as above; assay type: biochemical; details: read-out: KRAS G13C FRET IC50
Chain of KRAS G13C (P01116 other isoform, or with tags, fused parts or gaps G13C): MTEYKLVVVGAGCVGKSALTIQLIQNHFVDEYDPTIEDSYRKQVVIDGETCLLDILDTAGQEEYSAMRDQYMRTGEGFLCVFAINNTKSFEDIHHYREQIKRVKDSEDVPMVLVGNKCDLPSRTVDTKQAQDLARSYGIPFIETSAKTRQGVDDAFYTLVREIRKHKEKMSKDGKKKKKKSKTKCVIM
Chain of KRAS G13C (P62937 whole entry): as the sequence (P62937 whole entry) above
In short: as §2

KRAS G12D = KRAS G12D (Homo sapiens (Human), UniProt P01116+P62937, G12D); test: as above; assay type: biochemical; details: read-out: KRAS G12D FRET IC50
Chain of KRAS G12D (P01116 other isoform, or with tags, fused parts or gaps G12D): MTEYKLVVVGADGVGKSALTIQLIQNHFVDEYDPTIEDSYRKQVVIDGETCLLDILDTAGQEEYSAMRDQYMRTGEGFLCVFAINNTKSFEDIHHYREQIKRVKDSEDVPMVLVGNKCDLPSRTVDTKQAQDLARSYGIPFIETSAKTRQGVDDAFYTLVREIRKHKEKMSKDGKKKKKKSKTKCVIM
Chain of KRAS G12D (P62937 whole entry): as the sequence (P62937 whole entry) above
In short: as §2

KRAS G12V = KRAS G12V (Homo sapiens (Human), UniProt P01116+P62937, G12V); test: as above; assay type: biochemical; details: read-out: KRAS G12V FRET IC50
Chain of KRAS G12V (P01116 other isoform, or with tags, fused parts or gaps G12V): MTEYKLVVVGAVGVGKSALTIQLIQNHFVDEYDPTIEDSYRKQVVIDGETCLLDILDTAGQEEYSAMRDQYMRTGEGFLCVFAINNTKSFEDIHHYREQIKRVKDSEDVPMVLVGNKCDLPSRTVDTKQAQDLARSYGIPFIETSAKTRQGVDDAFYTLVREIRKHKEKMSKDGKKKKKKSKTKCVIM
Chain of KRAS G12V (P62937 whole entry): as the sequence (P62937 whole entry) above
In short: as §2

KRAS G12S = KRAS G12S (Homo sapiens (Human), UniProt P01116+P62937, G12S); test: as above; assay type: biochemical; details: read-out: KRAS G12S FRET IC50
Chain of KRAS G12S (P01116 other isoform, or with tags, fused parts or gaps G12S): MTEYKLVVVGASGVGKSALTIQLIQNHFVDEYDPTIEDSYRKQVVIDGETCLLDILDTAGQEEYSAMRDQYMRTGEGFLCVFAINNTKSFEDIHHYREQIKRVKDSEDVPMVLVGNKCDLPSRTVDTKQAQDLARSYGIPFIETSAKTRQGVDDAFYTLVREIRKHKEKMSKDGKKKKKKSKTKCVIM
Chain of KRAS G12S (P62937 whole entry): as the sequence (P62937 whole entry) above
In short: as §2

[3] = tested on: Capan-1 cells (K-Ras G12V); test: CellTiter-Glo cell viability, Capan-1; assay type: cell-based, human; details: Homo sapiens, CAPAN-1, 120 h, K-Ras G12V, 5-day treatment; read-out: Capan-1 Cell Viability IC50
In short: as §1

[4] = tested on: K-Ras G12C (NCI-H358 cells); test: Potency assay: pERK in NCI-H358 cells; assay type: cell-based, human; details: Homo sapiens; NCI-H358 cells, 4 hours; read-out: pERK EC50 (H358 KRAS G12C)
In short: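 Cells plated the day before were exposed for 4 h at 37° C, 5% CO2 to a 10-point, 3-fold DMSO dilution series (10 mM top stock), in duplicate. Phospho-ERK was read by AlphaLISA SureFire Ultra or by In-Cell Western with DRAQ5 DNA stain, and IC50 came from a 4-parameter sigmoidal fit.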

SMILES	IC50 [1] [nM]	IC50 [2] [nM]	IC50 (NCI-H358 (K-Ras G12C)) [nM]	IC50 (KRAS G13D) [nM]	IC50 (NRAS G12C) [nM]	IC50 (KRAS WT) [nM]	IC50 (KRAS Q61H) [nM]	IC50 (NRAS WT) [nM]	IC50 (KRAS G12C) [nM]	IC50 (KRAS G13C) [nM]	IC50 (KRAS G12D) [nM]	IC50 (KRAS G12V) [nM]	IC50 (KRAS G12S) [nM]	IC50 [3] [nM]	EC50 [4] [nM]
CCn1c(-c2cccnc2[C@H](C)OC)c2c3cc(ccc31)-c1csc(n1)C[C@H](NC(=O)[C@H](C(C)C)N(C)C(=O)N1C[C@H]3COC[C@H]3C1)C(=O)N1CCC[C@H](N1)C(=O)OCC(C)(C)C2 [Compound A312]	10 to 100	> 10000	> 10000	100 to 1000	10 to 100	10 to 100	10 to 100	10 to 100	10 to 100	100 to 1000	100 to 1000	100 to 1000	10 to 100	10 to 100	–
CCn1c(-c2cccnc2[C@H](C)OC)c2c3cc(ccc31)-c1csc(n1)C[C@H](NC(=O)[C@H](C(C)C)N(C)C(=O)N1CCN3C(=O)CN(C)C[C@@H]3C1)C(=O)N1CCC[C@H](N1)C(=O)OCC(C)(C)C2 [Compound A536]	< 10	–	–	100 to 1000	10 to 100	10 to 100	10 to 100	10 to 100	10 to 100	100 to 1000	100 to 1000	100 to 1000	100 to 1000	10 to 100	< 5000
CCn1c(-c2cccnc2[C@H](C)OC)c2c3cc(ccc31)-c1csc(n1)C[C@H](NC(=O)[C@H](C(C)C)N(C)C(=O)N1CC(Cc3cnn(C)c3)C1)C(=O)N1CCC[C@H](N1)C(=O)OCC(C)(C)C2 [Compound A500]	–	–	–	100 to 1000	10 to 100	10 to 100	10 to 100	10 to 100	10 to 100	10 to 100	100 to 1000	10 to 100	10 to 100	–	–
CCn1c(-c2cccnc2[C@H](C)OC)c2c3cc(ccc31)-c1csc(n1)C[C@H](NC(=O)[C@H](C(C)C)N(C)C(=O)N1CCOC3(COC3)C1)C(=O)N1CCC[C@H](N1)C(=O)OCC(C)(C)C2 [Compound A475]	–	–	–	100 to 1000	10 to 100	10 to 100	10 to 100	10 to 100	10 to 100	100 to 1000	100 to 1000	100 to 1000	100 to 1000	10 to 100	< 5000
CCn1c(-c2cccnc2[C@H](C)OC)c2c3cc(ccc31)-c1csc(n1)C[C@H](NC(=O)[C@H](C(C)C)N(C)C(=O)N1CC[C@@H]1C)C(=O)N1CCC[C@H](N1)C(=O)OCC(C)(C)C2 [Compound A304]	–	–	–	100 to 1000	10 to 100	100 to 1000	10 to 100	10 to 100	10 to 100	100 to 1000	100 to 1000	100 to 1000	100 to 1000	10 to 100	–
CCn1c(-c2cc(N3CCN(C)CC3)cnc2[C@H](C)OC)c2c3cc(ccc31)-c1csc(n1)C[C@H](NC(=O)[C@H](C(C)C)N(C)C(=O)N1CC(C3COC3)C1)C(=O)N1CCC[C@H](N1)C(=O)OCC(C)(C)C2 [Compound A465]	–	–	–	100 to 1000	10 to 100	10 to 100	10 to 100	10 to 100	10 to 100	10 to 100	100 to 1000	10 to 100	10 to 100	–	–
CCn1c(-c2cccnc2[C@H](C)OC)c2c3cc(ccc31)-c1csc(n1)C[C@H](NC(=O)[C@H](C(C)C)N(C)C(=O)N1CCC13COC3)C(=O)N1CCC[C@H](N1)C(=O)OCC(C)(C)C2 [Compound A560]	10 to 100	–	–	100 to 1000	10 to 100	10 to 100	10 to 100	10 to 100	10 to 100	100 to 1000	100 to 1000	100 to 1000	100 to 1000	100 to 1000	< 5000
CCn1c(-c2cccnc2[C@H](C)OC)c2c3cc(ccc31)-c1csc(n1)C[C@H](NC(=O)[C@H](C(C)C)N(C)C(=O)N(C)N(C)C)C(=O)N1CCC[C@H](N1)C(=O)OCC(C)(C)C2 [Compound A454]	10 to 100	–	–	100 to 1000	10 to 100	10 to 100	10 to 100	10 to 100	10 to 100	100 to 1000	100 to 1000	10 to 100	100 to 1000	10 to 100	< 5000
CCn1c(-c2cccnc2[C@H](C)OC)c2c3cc(ccc31)-c1csc(n1)C[C@H](NC(=O)[C@H](C(C)C)N(C)C(=O)N1CCC1)C(=O)N1CCC[C@H](N1)C(=O)OCC(C)(C)C2 [Compound A399]	–	–	–	100 to 1000	10 to 100	100 to 1000	10 to 100	10 to 100	10 to 100	100 to 1000	100 to 1000	10 to 100	100 to 1000	10 to 100	–
CCn1c(-c2cc(N3CCN(C)CC3)cnc2[C@H](C)OC)c2c3cc(ccc31)-c1csc(n1)C[C@H](NC(=O)[C@H](C(C)C)N(C)C(=O)[C@@H]1OCC[C@@H]1c1ccncc1)C(=O)N1CCC[C@H](N1)C(=O)OCC(C)(C)C2 [Compound A450]	–	–	–	100 to 1000	10 to 100	100 to 1000	10 to 100	10 to 100	10 to 100	100 to 1000	100 to 1000	100 to 1000	100 to 1000	–	–
